Counter-ions that a name gives are not always drawn.
Legend:
Format in all cases: cell-based
[1] = system: HTT mRNA; assay: Splicing assay (RT-qPCR) monitoring HTT splice variants, canonical (CJ) and alternative (AJ) junction; conditions: 50% response, A673 or K562 cell line, 24 hours; for IC50: decrease in CJ mRNA; for AC50: increase in AJ mRNA
Method: (§1) Compounds described herein were used to modulate RNA transcript abundance in cells. The expression of a target mRNA was measured by detecting the formation of an exon-exon junction in the canonical transcript (CJ). A compound mediated exon-inclusion event was detected by observing an increase in formation of a new junction with an alternative exon (AJ). Real-time qPCR assays were used to detect these splicing switches and interrogate the potency of various compounds towards different target genes. A high-throughput real time quantitative PCR (RT-qPCR) assay was developed to measure these two isoforms of the mRNA (CJ and AJ) for an exemplary gene, HTT, together with a control housekeeping gene, GAPDH or GUSB or PPIA, used for normalization. Briefly, the A673 or K562 cell line was treated with various compounds described herein (e.g., compounds of Formula (I)). After treatment, the levels of the HTT mRNA targets were determined from each sample of cell lysate by cDNA synthesis followed by qPCR.
• Cells-to-CT 1-step kit: ThermoFisher A25602, Cells-to-CT lysis reagent: ThermoFisher 4391851C, TaqMan™ Fast Virus 1-Step Master Mix: ThermoFisher 4444436 • GAPDH: VIC-PL, ThermoFisher 4326317E (Assay: Hs99999905_ml)—used for K562/suspension cell lines • GUSB: VIC-PL, ThermoFisher 4326320E (Assay: Hs99999908_ml)—used for K562/suspension cell lines • PPIA: VIC-PL, ThermoFisher 4326316E (Assay: Hs99999904_ml)—used for A673/adherent cell lines
(§2) The A673 cell line was cultured in DMEM with 10% FBS. Cells were diluted with full growth media and plated in a 96-well plate (15,000 cells in 100ul media per well). The plate was incubated at 37° C. with 5% CO2 for 24 hours to allow cells to adhere. An 11-point 3-fold serial dilution of the compounds was made in DMSO then diluted in media in an intermediate plate. Compounds were transferred from the intermediate plate to the cell plate with the top dose at a final concentration of 10 uM in the well. Final DMSO concentration was kept at or below 0.25%. The cell plate was returned to the incubator at 37° C. with 5% CO2 for an additional 24 hours.
(§3) The K562 cell line was cultured in IMDM with 10% FBS. For K562, cells were diluted with full growth media and plated in either a 96-well plate (50,000 cells in 50 uL media per well) or a 384-well plate (8,000-40,000 cells in 45 uL media per well). An 11-point 3-fold serial dilution of the compounds were made in DMSO then diluted in media in an intermediate plate. Compound was transferred from the intermediate plate to the cell plate with the top dose at a final concentration of 10 uM in the well. Final DMSO concentration was kept at or below 0.25%. Final volume was 100 uL for 96-well plate and 50 uL for 384-well plate. The cell plate was then placed in an incubator at 37° C. with 5% CO2 for 24 hours.
The cells were then gently washed with 50 uL-100 uL cold PBS before proceeding to addition of lysis buffer. 30 uL-50 uL of room temperature lysis buffer with DNAse I (and optionally RNAsin) was added to each well. Cells were shaken/mixed thoroughly at room temperature for 5-10 minutes for lysis to take place and then 3 uL-5 uL of room temperature stop solution was added and wells were shaken/mixed again. After 2-5 minutes, the cell lysate plate was transferred to ice for RT-qPCR reaction setup. The lysates could also be frozen at −80° C. for later use.
In some cases, a direct lysis buffer was used. An appropriate volume of 3X lysis buffer (10 mM Tris, 150 mM NaCl, 1.5%-2.5% Igepal and 0.1-1 U/uL RNAsin, pH 7.4) was directly added to either K562 or A673 cells in media and mixed by pipetting 3 times. The plates were then incubated at room temperature with shaking/rocking for 20-50 minutes to allow for lysis to take place. After this time, the cell lysate plate was transferred to ice to set up for the RT-qPCR reactions. The lysates could also be frozen at −80° C. for later use. […]

[2] = system: HTT CJ mRNA; assay: Gene panel canonical junction qPCR assay, HTT; conditions: Table 6, decrease in CJ mRNA, read-out: HTT IC50 (decrease in CJ mRNA levels)
Method: as §1, §2, §3
(§4) The data analysis was performed by first determining the ΔCt vs the housekeeper gene. This ΔCt was then normalized against the DMSO control (ΔΔCt) and converted to RQ (relative quantification) using the 2^(−ΔΔCt) equation. The RQ were then converted to a percentage response by arbitrarily setting an assay window of 3.5 ΔCt for HTT-CJ and an assay window of 9 ΔCt for HTT-AJ. […] The percentage response was then fitted to the 4 parametric logistic equation to evaluate the concentration dependence of compound treatment. The increase in AJ mRNA is reported as AC50 (compound concentration having 50% response in AJ increase) while the decrease in CJ mRNA levels is reported as IC50 (compound concentration having 50% response in CJ decrease).
(§5) Additional studies were carried out for a larger panel of genes using the protocol provided above. The junction between flanking upstream and downstream exons was used to design canonical junction qPCR assays. At least one of the forward primer, reverse primer or the CY5-labeled 5′ nuclease probe (with 3′ quencher such as ZEN/Iowa Black FQ) was designed to overlap with the exon junction to capture the CJ mRNA transcript. BLAST was used to confirm the specificity of the probeset and parameters such as melting temperature, GC content, amplicon size, and primer dimer formation are considered during their design. Data for the decrease in CJ mRNA levels for three exemplary genes (HTT, SMN2, and Target C) analyzed in this panel are reported as IC50 (compound concentration having […] in CJ decrease).

[3] = system: Target C CJ mRNA; assay: Gene panel canonical junction qPCR assay, Target C; conditions: Table 6, decrease in CJ mRNA, read-out: Target C IC50 (decrease in CJ mRNA levels)
Method: as §1, §2, §3, §4, §5

[4] = system: SMN2 CJ mRNA; assay: Gene panel canonical junction qPCR assay, SMN2; conditions: Table 6, decrease in CJ mRNA, read-out: SMN2 IC50 (decrease in CJ mRNA levels)
Method: as §1, §2, §3, §4, §5

Cn1cc2cc(-c3cc4sc(C5CCNCC5)nc4s3)cc(F)c2n1 [Compound 124, 7-fluoro-2-methyl-5-[2-(piperidin-4-yl)thieno[2,3-d][1,3]thiazol-5-yl]indazole]
IC50 [1]: 100 to 1000 nM | AC50 [1]: < 100 nM | IC50 [2]: 100 to 1000 nM | IC50 [3]: 100 to 1000 nM | IC50 [4]: < 100 nM

Cn1cc2cc(-c3nc4sc(N5CCN6CCCC6C5)cc4s3)cc(F)c2n1 (stereo not shown) [Compound 144, 7-fluoro-5-(5-[hexahydro-1H-pyrrolo[1,2-a]pyrazin-2-yl]thieno[2,3-d][1,3]thiazol-2-yl)-2-methylindazole]
IC50 [1]: 1000 to 10000 nM | AC50 [1]: 100 to 1000 nM | IC50 [2]: 1000 to 10000 nM | IC50 [3]: > 10000 nM | IC50 [4]: < 100 nM

Cn1cc2ccc(-c3nc4sc(C5CCNCC5)cc4s3)cc2n1 [Compound 127, 2-methyl-6-[5-(piperidin-4-yl)thieno [2,3-d][1,3]thiazol-2-yl]indazole hydrochloride]
IC50 [1]: 1000 to 10000 nM | AC50 [1]: 1000 to 10000 nM | IC50 [2]: 1000 to 10000 nM | IC50 [3]: 1000 to 10000 nM | IC50 [4]: 1000 to 10000 nM

Cc1cn2cc(-c3cc4cn(C5CCNCC5)nc4s3)ncc2n1 [Compound 223]
IC50 [1]: 1000 to 10000 nM | AC50 [1]: 1000 to 10000 nM | IC50 [2]: 1000 to 10000 nM | IC50 [3]: 1000 to 10000 nM | IC50 [4]: 100 to 1000 nM

Cc1cn2nc(-c3nc4sc(C5CCNC5)cc4s3)cc(C)c2n1 (stereo not shown) [Compound 197, 3-(2-{2,8-dimethylimidazo[1,2-b]pyridazin-6-yl}thieno [2,3-d][1,3]thiazol-5-yl)pyrrolidine]
IC50 [1]: 100 to 1000 nM | AC50 [1]: 100 to 1000 nM | IC50 [2]: 100 to 1000 nM | IC50 [3]: 1000 to 10000 nM | IC50 [4]: 100 to 1000 nM

Cn1cc2cc(-c3cc4cn(C5CNC5)nc4s3)cc(F)c2n1 [Compound 184]
IC50 [1]: 1000 to 10000 nM | AC50 [1]: 1000 to 10000 nM | IC50 [2]: 1000 to 10000 nM | IC50 [3]: > 10000 nM | IC50 [4]: 100 to 1000 nM

Cc1cn2nc(-c3nc4sc(C5CCNCC5)cc4s3)cc2c(C)n1 [Compound 133, 4-(2-[4,6-dimethylpyrazolo[1,5-a]pyrazin-2-yl]thieno[2,3-d][1,3]thiazol-5-yl)piperidine]
IC50 [1]: 100 to 1000 nM | AC50 [1]: 100 to 1000 nM | IC50 [2]: 100 to 1000 nM | IC50 [3]: 100 to 1000 nM | IC50 [4]: 100 to 1000 nM

Cc1cn2cc(-c3nc4sc(C5CCNCC5)cc4s3)ncc2n1 [Compound 205, 4-(2-{2-methylimidazo[1,2-a]pyrazin-6-yl}thieno[2,3-d][1,3]thiazol-5-yl)piperidine]
IC50 [1]: 1000 to 10000 nM | AC50 [1]: 1000 to 10000 nM | IC50 [2]: 1000 to 10000 nM | IC50 [3]: 1000 to 10000 nM | IC50 [4]: 1000 to 10000 nM

Cn1cc2cc(-c3nc4sc(N5CCC6(CCN6)C5)cc4s3)cc(F)c2n1 (stereo not shown) [Compound 233, 5-(5-{1,6-diazaspiro[3.4]octan-6-yl}thieno[2,3-d][1,3]thiazol-2-yl)-7-fluoro-2-methylindazole]
IC50 [1]: 1000 to 10000 nM | AC50 [1]: 1000 to 10000 nM | IC50 [2]: 1000 to 10000 nM | IC50 [3]: 1000 to 10000 nM | IC50 [4]: < 100 nM

C[C@@H]1C[C@@H](c2cc3sc(-c4cc(F)c5nn(C)cc5c4)nc3s2)CCN1 [Compound 193, 7-fluoro-2-methyl-5-[5-(2-methylpiperidin-4-yl)thieno[2,3-d][1,3]thiazol-2-yl]indazole]
IC50 [1]: < 100 nM | AC50 [1]: < 100 nM | IC50 [2]: < 100 nM | IC50 [3]: < 100 nM | IC50 [4]: < 100 nM

Cc1cn2nc(-c3nc4sc(C5CCOCC5)cc4s3)cc(C)c2n1 [Compound 196, 2,8-dimethyl-6-[5-(oxan-4-yl)thieno[2,3-d][1,3]thiazol-2-yl]imidazo[1,2-b]pyridazine]
IC50 [1]: 1000 to 10000 nM | AC50 [1]: 1000 to 10000 nM | IC50 [2]: 1000 to 10000 nM | IC50 [3]: 1000 to 10000 nM | IC50 [4]: 1000 to 10000 nM

Cn1cc2cc(-c3cc4cn(C5CCNCC5)nc4s3)cc(F)c2n1 [Compound 122, 7-fluoro-2-methyl-5-[2-(piperidin-4-yl)thieno[2,3-c]pyrazol-5-yl]indazole]
IC50 [1]: < 100 nM | AC50 [1]: 100 to 1000 nM | IC50 [2]: < 100 nM | IC50 [3]: < 100 nM | IC50 [4]: < 100 nM

Cn1cc2cc(-c3cc4cn(C5CCNCC5)nc4s3)ccc2n1 [Compound 207]
IC50 [1]: 100 to 1000 nM | AC50 [1]: 100 to 1000 nM | IC50 [2]: 100 to 1000 nM | IC50 [3]: 1000 to 10000 nM | IC50 [4]: < 100 nM

CC1CN(c2cc3sc(-c4cc(F)c5nn(C)cc5c4)nc3s2)CCN1C (stereo not shown) [Compound 128, 5-[5-(3,4-dimethylpiperazin-1-yl)thieno[2,3-d][1,3]thiazol-2-yl]-7-fluoro-2-methylindazole]
IC50 [1]: 1000 to 10000 nM | AC50 [1]: 1000 to 10000 nM | IC50 [2]: 1000 to 10000 nM | IC50 [3]: 1000 to 10000 nM | IC50 [4]: 100 to 1000 nM

CN1CC2(C1)CN(c1cc3sc(-c4cc(F)c5nn(C)cc5c4)nc3s1)C2 [Compound 146, 7-fluoro-2-methyl-5-(5-[6-methyl-2,6-diazaspiro[3.3]heptan-2-yl]thieno[2,3-d][1,3]thiazol-2-yl)indazole]
IC50 [1]: 100 to 1000 nM | AC50 [1]: 100 to 1000 nM | IC50 [2]: 100 to 1000 nM | IC50 [3]: 100 to 1000 nM | IC50 [4]: < 100 nM

Cc1cn2cc(-c3cc4cn(C5CCNCC5)nc4s3)cc(Cl)c2n1 [Compound 226]
IC50 [1]: < 100 nM | AC50 [1]: < 100 nM | IC50 [2]: < 100 nM | IC50 [3]: 100 to 1000 nM | IC50 [4]: < 100 nM

Cc1cn2cc(-n3cc4sc(C5CCNCC5)cc4n3)cc(Cl)c2n1 [Compound 172]
IC50 [1]: 100 to 1000 nM | AC50 [1]: 100 to 1000 nM | IC50 [2]: 100 to 1000 nM | IC50 [3]: 1000 to 10000 nM | IC50 [4]: 100 to 1000 nM

Cc1nc2c(F)cc(-n3cc4cc(C5CCNCC5)sc4n3)cc2o1 [Compound 157]
IC50 [1]: 100 to 1000 nM | AC50 [1]: 100 to 1000 nM | IC50 [2]: 100 to 1000 nM | IC50 [3]: 100 to 1000 nM | IC50 [4]: < 100 nM

Cc1cn2cc(-c3nc4sc(C5CCNCC5)cc4s3)cc(C)c2n1 [Compound 140, 4-(2-[2,8-dimethylimidazo[1,2-a]pyridin-6-yl]thieno[2,3-d][1,3]thiazol-5-yl)piperidine hydrochloride]
IC50 [1]: < 100 nM | AC50 [1]: < 100 nM | IC50 [2]: < 100 nM | IC50 [3]: 100 to 1000 nM | IC50 [4]: < 100 nM

Cn1cc2c(F)cc(-n3cc4cc(C5CCNCC5)sc4n3)cc2n1 [Compound 174]
IC50 [1]: > 10000 nM | AC50 [1]: > 10000 nM | IC50 [2]: > 10000 nM | IC50 [3]: > 10000 nM | IC50 [4]: 1000 to 10000 nM
